According to PubChem BioAssay (NCI):
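Here, GI50 denotes the concentration required for 50% inhibition of growth. At the TGI there is no net growth.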

Tests used:
Assay in all cases: NCI-60 cell line screen, 384-well format
786-0 renal = test system: 786-0 renal
A498 renal = test system: A498 renal
A549 NSCLC = test system: A549 NSCLC
ACHN renal = test system: ACHN renal
BT-549 breast = test system: BT-549 breast
CAKI-1 renal = test system: CAKI-1 renal
CCRF-CEM leukemia = test system: CCRF-CEM leukemia
COLO 205 colon = test system: COLO 205 colon
DU-145 prostate = test system: DU-145 prostate
EKVX NSCLC = test system: EKVX NSCLC
HCC-2998 colon = test system: HCC-2998 colon
HCT-116 colon = test system: HCT-116 colon
HCT-15 colon = test system: HCT-15 colon
HL-60(TB) leukemia = test system: HL-60(TB) leukemia
HOP-62 NSCLC = test system: HOP-62 NSCLC
HOP-92 NSCLC = test system: HOP-92 NSCLC
HS 578T breast = test system: HS 578T breast
HT29 colon = test system: HT29 colon
IGROV1 ovarian = test system: IGROV1 ovarian
K-562 leukemia = test system: K-562 leukemia
KM12 colon = test system: KM12 colon
LOX IMVI melanoma = test system: LOX IMVI melanoma
M14 melanoma = test system: M14 melanoma
MCF7 breast = test system: MCF7 breast
MDA-MB-231 breast = test system: MDA-MB-231 breast
MDA-MB-435 melanoma = test system: MDA-MB-435 melanoma
MDA-MB-468 breast = test system: MDA-MB-468 breast
MOLT-4 leukemia = test system: MOLT-4 leukemia
NCI-H226 lung = test system: NCI-H226 lung
NCI-H23 lung = test system: NCI-H23 lung
NCI-H322M lung = test system: NCI-H322M lung
NCI-H460 NSCLC = test system: NCI-H460 NSCLC
NCI-H522 lung = test system: NCI-H522 lung
NCI/ADR-RES ovarian = test system: NCI/ADR-RES ovarian
OVCAR-3 ovarian = test system: OVCAR-3 ovarian
OVCAR-4 ovarian = test system: OVCAR-4 ovarian
OVCAR-5 ovarian = test system: OVCAR-5 ovarian
OVCAR-8 ovarian = test system: OVCAR-8 ovarian
PC-3 prostate = test system: PC-3 prostate
RPMI-8226 leukemia = test system: RPMI-8226 leukemia
RXF 393 renal = test system: RXF 393 renal
SF-268 CNS = test system: SF-268 CNS
SF-295 CNS = test system: SF-295 CNS
SF-539 CNS = test system: SF-539 CNS
SK-MEL-28 melanoma = test system: SK-MEL-28 melanoma
SK-MEL-5 melanoma = test system: SK-MEL-5 melanoma
SK-OV-3 ovarian = test system: SK-OV-3 ovarian
SN12C renal = test system: SN12C renal
SNB-19 CNS = test system: SNB-19 CNS
SNB-75 CNS = test system: SNB-75 CNS
SW-620 colon = test system: SW-620 colon
T-47D breast = test system: T-47D breast
TK-10 renal = test system: TK-10 renal
U251 glioblastoma = test system: U251 glioblastoma
UACC-257 melanoma = test system: UACC-257 melanoma
UACC-62 melanoma = test system: UACC-62 melanoma
UO-31 renal = test system: UO-31 renal

SMILES: C[C@H](O)C(=O)N1CCC(CCn2c(Sc3cc4c(cc3Br)OCO4)nc3c(N)ncnc32)CC1
- GI50 ([…]-0 renal): 607 nM
- TGI (786-0 renal): > 100000 nM
- GI50 (A498 renal): 901 nM
- TGI (A498 renal): > 100000 nM
- GI50 (A549 NSCLC): 318 nM
- TGI (A549 NSCLC): > 100000 nM
- GI50 (ACHN renal): 574 nM
- TGI (ACHN renal): > 100000 nM
- GI50 (BT-549 breast): 410 nM
- TGI (BT-549 breast): 2820 nM
- GI50 (CAKI-1 renal): 657 nM
- TGI (CAKI-1 renal): 88800 nM
- GI50 (CCRF-CEM leukemia): 229 nM
- TGI (CCRF-CEM leukemia): 783 nM
- GI50 (COLO 205 colon): 291 nM
- TGI (COLO 205 colon): 1840 nM
- GI50 (DU-145 prostate): 420 nM
- TGI (DU-145 prostate): 13800 nM
- GI50 (EKVX NSCLC): 649 nM
- TGI (EKVX NSCLC): 25100 nM
- GI50 (HCC-2998 colon): 127 nM
- TGI (HCC-2998 colon): 478 nM
- GI50 (HCT-116 colon): 518 nM
- TGI (HCT-116 colon): > 100000 nM
- GI50 (HCT-15 colon): 757 nM
- TGI (HCT-15 colon): 15600 nM
- GI50 (HL-60(TB) leukemia): 248 nM
- TGI (HL-60(TB) leukemia): 523 nM
- GI50 (HOP-62 NSCLC): 582 nM
- TGI (HOP-62 NSCLC): 27800 nM
- GI50 (HOP-92 NSCLC): 624 nM
- TGI (HOP-92 NSCLC): 2370 nM
- GI50 (HS 578T breast): 327 nM
- TGI (HS 578T breast): 2220 nM
- GI50 (HT29 colon): 337 nM
- TGI (HT29 colon): 20300 nM
- GI50 (IGROV1 ovarian): 299 nM
- TGI (IGROV1 ovarian): 1740 nM
- GI50 (K-562 leukemia): 271 nM
- TGI (K-562 leukemia): 4700 nM
- GI50 (KM12 colon): 318 nM
- TGI (KM12 colon): 10900 nM
- GI50 (LOX IMVI melanoma): 327 nM
- TGI (LOX IMVI melanoma): 1070 nM
- GI50 (M14 melanoma): 361 nM
- TGI (M14 melanoma): 11800 nM
- GI50 (MCF7 breast): 286 nM
- TGI (MCF7 breast): 2810 nM
- GI50 (MDA-MB-231 breast): 537 nM
- TGI (MDA-MB-231 breast): 7360 nM
- GI50 (MDA-MB-435 melanoma): 1270 nM
- TGI (MDA-MB-435 melanoma): > 100000 nM
- GI50 (MDA-MB-468 breast): 294 nM
- TGI (MDA-MB-468 breast): 743 nM
- GI50 (MOLT-4 leukemia): 122 nM
- TGI (MOLT-4 leukemia): 268 nM
- GI50 (NCI-H226 lung): 568 nM
- TGI (NCI-H226 lung): 7660 nM
- GI50 (NCI-H23 lung): 214 nM
- TGI (NCI-H23 lung): 640 nM
- GI50 (NCI-H322M lung): 593 nM
- TGI (NCI-H322M lung): 58100 nM
- GI50 (NCI-H460 NSCLC): 275 nM
- TGI (NCI-H460 NSCLC): 745 nM
- GI50 (NCI-H522 lung): 203 nM
- TGI (NCI-H522 lung): 410 nM
- GI50 (NCI/ADR-RES ovarian): 9820 nM
- TGI (NCI/ADR-RES ovarian): 35500 nM
- GI50 (OVCAR-3 ovarian): 405 nM
- TGI (OVCAR-3 ovarian): 3270 nM
- GI50 (OVCAR-4 ovarian): 17300 nM
- TGI (OVCAR-4 ovarian): > 100000 nM
- GI50 (OVCAR-5 ovarian): 723 nM
- TGI (OVCAR-5 ovarian): > 100000 nM
- GI50 (OVCAR-8 ovarian): 272 nM
- TGI (OVCAR-8 ovarian): 707 nM
- GI50 (PC-3 prostate): 655 nM
- TGI (PC-3 prostate): 4010 nM
- GI50 (RPMI-8226 leukemia): 472 nM
- TGI (RPMI-8226 leukemia): 2530 nM
- GI50 (RXF 393 renal): 346 nM
- TGI (RXF 393 renal): 26000 nM
- GI50 (SF-268 CNS): 174 nM
- TGI (SF-268 CNS): 494 nM
- GI50 (SF-295 CNS): 433 nM
- TGI (SF-295 CNS): 1700 nM
- GI50 (SF-539 CNS): 223 nM
- TGI (SF-539 CNS): 442 nM
- GI50 (SK-MEL-28 melanoma): 589 nM
- TGI (SK-MEL-28 melanoma): 31200 nM
- GI50 (SK-MEL-5 melanoma): 335 nM
- TGI (SK-MEL-5 melanoma): 19600 nM
- GI50 (SK-OV-3 ovarian): 827 nM
- TGI (SK-OV-3 ovarian): 76600 nM
- GI50 (SN12C renal): 333 nM
- TGI (SN12C renal): 1840 nM
- GI50 (SNB-19 CNS): 694 nM
- TGI (SNB-19 CNS): > 100000 nM
- GI50 (SNB-75 CNS): 1490 nM
- TGI (SNB-75 CNS): 7220 nM
- GI50 (SW-620 colon): 303 nM
- TGI (SW-620 colon): 2550 nM
- GI50 (T-47D breast): 344 nM
- TGI (T-47D breast): 1500 nM
- GI50 (TK-10 renal): 522 nM
- TGI (TK-10 renal): 23300 nM
- GI50 (U251 glioblastoma): 395 nM
- TGI (U251 glioblastoma): 1450 nM
- GI50 (UACC-257 melanoma): 4380 nM
- TGI (UACC-257 melanoma): 31000 nM
- GI50 (UACC-62 melanoma): 534 nM
- TGI (UACC-62 melanoma): 3070 nM
- GI50 (UO-31 renal): 680 nM
- TGI (UO-31 renal): 58800 nM
